Results from patent US20230104311A1, “NOVEL 6-SUBSTITUTED 7-DEAZAPURINES AND CORRESPONDING NUCLEOSIDES AS MEDICAMENTS” (KATHOLIEKE UNIVERSITEIT LEUVEN, priority 2020, published 2023).
pEC50, pIC50: −log10 of the molar value. Values joined by “and” are separate entries in the source; they are usually repeats but may differ in a detail not shown here. Equal entries are not always repeated. “Also recorded” adds a separate entry of the source. Where two headings read alike, the source gives them in different places.

Key:
human norovirus (HuNoV) = experiment: Inhibition of in vitro replication of genogroup 1 NoV in HG23 NoV replicon cells (qRT-PCR of intracellular RNA); type: cell-based; conditions: for inhibitory activity against human norovirus (in words): HuNoV assay
[1] = Cytotoxicity (CC50) determined in parallel in uninfected cells (β-actin toxicity); conditions: human
HCV [2] = conditions: anti-HCV in vitro; cited from earlier work
uninfected cells [3] = experiment: Cytotoxicity (CC50) determined in parallel in uninfected cells (β-actin toxicity); conditions: HuNoV assay
uninfected cells [4] = tested on: uninfected cells
HCV [5] = conditions: read-out: EC50 HCV in cell cultures; cited from earlier work
poliovirus (PV) = conditions: read-out: IC50 poliovirus (PV) replication; cited from earlier work
dengue virus (DENV2) = conditions: read-out: IC50 dengue virus (DENV2) replication; cited from earlier work
[6] = tested on: Influenza A virus strain California/07/2009; experiment: Inhibition of in vitro replication of Influenza A virus; type: cell-based; conditions: for pEC50: Influenza A virus strain California/07/2009
[7] = tested on: MERS Coronavirus strain EMC; experiment: microbe, parasite or virus in culture; type: cell-based
in vitro = conditions: human
murine norovirus (MNV) = conditions: read-out: EC50 murine norovirus (MNV) polymerase; cited from earlier work
HuNoV = conditions: human B cell BJAB cell line; read-out: EC50 HuNoV replication; cited from earlier work
norovirus = conditions: read-out: EC50 norovirus replication; cited from earlier work
[8] = Norovirus, HG23, read-out: EC50 (effective concentration to inhibit the replication of the virus by 50%), HuNoV, HG23 NoV replicon cells
[9] = HuNoV, HG23 NoV replicon cells, read-out: EC50 (effective concentration to inhibit the replication of the virus by 50%)
[10] = Norovirus, HuNoV, HG23 NoV replicon cells, read-out: EC90 (effective concentration to inhibit the replication of the virus by 90%)
[11] = Norovirus, HG23, HuNoV, HG23 NoV replicon cells, read-out: EC50 (effective concentration to inhibit the replication of the virus by 50%)
[12] = HuNoV, HG23 NoV replicon cells, read-out: EC90 (effective concentration to inhibit the replication of the virus by 90%)

## CCCCCc1ncnc2c1ccn2[C@@H]1O[C@H](CO)[C@@H](O)[C@H]1O [Compound 11f, 6-Pentyl-9-β-D-ribofuranosyl-7-deazapurine]
Human norovirus (HuNoV); [8]
  pEC50: 7.08
Human norovirus (HuNoV); Norovirus, HG23, read-out: EC90 (effective concentration to inhibit the replication of the virus by 90%)
  EC90: > 100 µM
[1]; uninfected cells
  CC50: > 100 µM

## C[C@@]1(O)[C@H](O)[C@@H](CO)O[C@H]1c1cc(C(N)=O)c2c(N)ncnn12 [7-carboamido analogue 2]
HCV [2]
  improvement in potency relative to the parent compound 1: 40 fold

## OC[C@H]1O[C@@H](n2ccc3c(C4CCCCC4)ncnc32)[C@H](O)[C@@H]1O [Compound 11l, 6-Cyclohexyl-9-β-D-ribofuranosyl-7-deazapurine]
Human norovirus (HuNoV)
  inhibitory activity against human norovirus (in words): potent activity
Human norovirus (HuNoV); [9]
  pEC50: 6.74
Human norovirus (HuNoV); [8]
  pEC50: 6.74
Human norovirus (HuNoV); [10]
  EC90: 7.24 µM
[1]; uninfected cells
  CC50: 42.4 µM
Uninfected cells [3]
  cytotoxicity (in words): did not display significant cytotoxicity; also recorded: without significant cytotoxicity

## CC(C)c1ncnc2c1ccn2[C@@H]1O[C@H](CO)[C@@H](O)[C@H]1O [Compound 11c, 6-Isopropyl-9-β-D-ribofuranosyl-7-deazapurine]
Human norovirus (HuNoV)
  inhibitory activity against human norovirus (in words): potent activity
Human norovirus (HuNoV); [8]
  pEC50: 7.62
Human norovirus (HuNoV); [10]
  EC90: 2.69 µM
[1]; uninfected cells
  CC50: > 100 µM
Uninfected cells [3]
  cytotoxicity (in words): did not display significant cytotoxicity; also recorded: without significant cytotoxicity

## CCCCCCc1ncnc2c1ccn2[C@@H]1O[C@H](CO)[C@@H](O)[C@H]1O [Compound 11g, 6-Hexyl-9-β-D-ribofuranosyl-7-deazapurine]
Human norovirus (HuNoV); [11]
  pEC50: 6.89
Human norovirus (HuNoV); [10]
  EC90: 57.6 µM
[1]; uninfected cells
  CC50: 62.3 µM

## OC[C@H]1O[C@@H](n2ccc3c(C4CC4)ncnc32)[C@H](O)[C@@H]1O [Compound 11j, 6-Cycloproyl-9-β-D-ribofuranosyl-7-deazapurine]
Human norovirus (HuNoV); [9]
  pEC50: 6.69
Human norovirus (HuNoV); [12]
  EC90: > 100 µM
Uninfected cells [4]
  CC50: > 100 µM

## C[C@@]1(O)[C@H](O)[C@@H](CO)O[C@H]1c1ccc2c(N)ncnn12 [2′-C-methyl-4-aza-7,9-dideazaadenosine]
HCV [5]
  pEC50: 5.70

## CCCc1ncnc2c1ccn2[C@@H]1O[C@H](CO)[C@@H](O)[C@H]1O [Compound 11e, 6-Propyl-9-β-D-ribofuranosyl-7-deazapurine]
Human norovirus (HuNoV)
  inhibitory activity against human norovirus (in words): potent activity
Human norovirus (HuNoV); [8]
  pEC50: 7.80
Human norovirus (HuNoV); [10]
  EC90: 19 µM
[1]; uninfected cells
  CC50: > 100 µM
Uninfected cells [3]
  cytotoxicity (in words): did not display significant cytotoxicity; also recorded: without significant cytotoxicity

## Cc1ncnc2c1ccn2[C@@H]1O[C@H](CO)[C@@H](O)[C@H]1O [Compound 3]
Poliovirus (PV)
  pIC50: 7.96
Dengue virus (DENV2)
  pIC50: 7.41

## OC[C@H]1O[C@@H](n2ccc3c(C4CCCC4)ncnc32)[C@H](O)[C@@H]1O [Compound 11k, 6-Cyclopentyl-9-β-D-ribofuranosyl-7-deazapurine]
Human norovirus (HuNoV); [11]
  pEC50: < 4.00
Human norovirus (HuNoV); [10]
  EC90: > 100 µM
[1]; uninfected cells
  CC50: > 100 µM

## OC[C@H]1O[C@@H](n2ccc3c(-c4ccccc4)ncnc32)[C@H](O)[C@@H]1O [Compound 11o, 6-Phenyl-9-β-D-ribofuranosyl-7-deazapurine]
Human norovirus (HuNoV); [11]
  pEC50: 6.68
Human norovirus (HuNoV); [10]
  EC90: 61.9 µM
[1]; uninfected cells
  CC50: > 100 µM

## CCc1ccc(-c2ncnc3c2ccn3[C@@H]2O[C@H](CO)[C@@H](O)[C@H]2O)cc1 [Compound 11q, 6-(4-Ethylphenyl)-9-β-D-ribofuranosyl-7-deazapurine]
Human norovirus (HuNoV); [11]
  pEC50: 4.24
Human norovirus (HuNoV); [10]
  EC90: > 100 µM
[1]; uninfected cells
  CC50: > 100 µM

## CN(C)c1ccc(-c2ncnc3c2ccn3[C@@H]2O[C@H](CO)[C@@H](O)[C@H]2O)cc1 [Compound 11p, 6-(4-(Dimethylamino)phenyl)-9-β-D-ribofuranosyl-7-deazapurine]
Human norovirus (HuNoV); [11]
  pEC50: 4.03
Human norovirus (HuNoV); [10]
  EC90: > 100 µM
[1]; uninfected cells
  CC50: > 100 µM

## CCc1ncnc2c1ccn2[C@@H]1O[C@H](CO)[C@@H](O)[C@H]1O [Compound 11d, 6-Ethyl-9-β-D-ribofuranosyl-7-deazapurine]
Human norovirus (HuNoV); [8]
  pEC50: 7.64
Human norovirus (HuNoV); [10]
  EC90: 0.495 µM
[6]
  inhibitory activity against Influenza A virus (in words): moderate inhibitory activity
  pEC50: 6.38
[7]
  inhibitory activity against MERS Coronavirus (in words): moderate inhibitory activity
[7]; Middle East respiratory syndrome-related coronavirus
  pEC50: 5.04
In vitro
  CC50: > 100 µM
[1]
  CC50: 10.2 µM
Uninfected cells [3]
  cytotoxicity (in words): did not display significant cytotoxicity

## CC(C)Cc1ncnc2c1ccn2[C@@H]1O[C@H](CO)[C@@H](O)[C@H]1O [Compound 11i, 6-Isobutyl-9-β-D-ribofuranosyl-7-deazapurine]
Human norovirus (HuNoV); [11]
  pEC50: 8.70
Human norovirus (HuNoV); [10]
  EC90: > 100 µM
[1]; uninfected cells
  CC50: > 100 µM

## C[C@@]1(O)[C@H](O)[C@@H](CO)O[C@H]1n1ccc(N)nc1=O [2’Cmethyl Cytidine, 2′-C-Methyl-cytidine, reference compound]
Human norovirus (HuNoV); [11]
  pEC50: 5.58
Human norovirus (HuNoV); [10]
  EC90: 13.8 µM
Murine norovirus (MNV)
  pEC50: 5.70
HuNoV
  pEC50: 6.52
[1]; uninfected cells
  CC50: > 25 µM

## Cc1ccc(-c2ncnc3c2ccn3[C@@H]2O[C@H](CO)[C@@H](O)[C@H]2O)cc1 [Compound 11a, 6-(4-Methylphenyl)-9-β-D-ribofuranosyl-7-deazapurine]
Human norovirus (HuNoV); [10]
  EC90: > 100 µM
[1]; uninfected cells
  CC50: > 100 µM

## Cc1ncnc2c1ccn2[C@@H]1O[C@H](CO)[C@@H](O)[C@H]1O [Compound 11b, 6-Methyl-9-β-D-ribofuranosyl-7-deazapurine]
Human norovirus (HuNoV)
  inhibitory activity against human norovirus (in words): good activity
Human norovirus (HuNoV); [8]
  pEC50: 7.92
Human norovirus (HuNoV); [10]
  EC90: 0.068 µM
[1]; uninfected cells
  CC50: 0.53 µM

## CC(C)c1ccc(-c2ncnc3c2ccn3[C@@H]2O[C@H](CO)[C@@H](O)[C@H]2O)cc1 [Compound 11m, 6-(4-isoproylphenyl)-9-β-D-ribofuranosyl-7-deazapurine]
Human norovirus (HuNoV); [9]
  pEC50: 8.70 and > 9.00
Human norovirus (HuNoV); [12]
  EC90: 55 µM
Uninfected cells [4]
  CC50: > 100 µM

## COc1ccc(-c2ncnc3c2ccn3[C@@H]2O[C@H](CO)[C@@H](O)[C@H]2O)cc1 [Compound 11n, 6-(4-Methoxylphenyl)-9-β-D-ribofuranosyl-7-desazapurine]
Human norovirus (HuNoV); [11]
  pEC50: 7.03
Human norovirus (HuNoV); [10]
  EC90: > 100 µM
[1]; uninfected cells
  CC50: > 100 µM

## NC(=O)c1ncn([C@@H]2O[C@H](CO)[C@@H](O)[C@H]2O)n1 [Ribavirin, reference compound]
[6]
  pEC50: 5.44
norovirus
  pEC50: 4.37
In vitro
  CC50: > 1000 µM
